Assay results published in patent publication US20100317711A1, “STEM-LIKE CELLS AND METHOD FOR REPROGRAMMING ADULT MAMMALIAN SOMATIC CELLS” (GLIAMED, INC., priority 2009, published 2010).

Tests used:
[1] = tested on: normal human dermal fibroblasts (NHDF); test: Oct4 immunostaining of normal human dermal fibroblasts cultured with GM1485; format: cell-based; details: GM1485 100 μM in serum free medium, 72 hours, versus vehicle
Protocol: The fibroblasts were harvested from a skin sample was taken from the face of a human cadaver. The skin sample was cut into small fragments and digested with dispase overnight (4° C.). Thereafter the epidermis was separated from the dermis. The dermis fragments were further digested with collagenase for approximately 1 h at 37° C., and then diluted with culture medium and filtered to obtain a suspension of dermal cells. The dermal cells were next purified via magnetic bead separation to yield normal human dermal fibroblasts (“NHDFs”). Second passage normal human dermal fibroblasts (NHDF) were seeded onto poly-D-lysine coated coverslips within wells of 24-well plates, at a density of 4,000 cells/well and cultured overnight in NHDF growth medium from PromoCell GmbH (NHDF GM) consisting of: The NHDF GM was aspirated, the wells were rinsed twice with Hank's balanced salt solution (HBSS), and 400 μL of serum free medium (SFM) supplemented with GM1485 at a final concentration of 100 μM or the vehicle the drug vehicle (SFM). […]

[2] = tested on: human fibroblasts; test: Reprogramming of GM1485-treated human fibroblasts under neural inducing conditions (GFAP, TuJ1 staining); format: cell-based; details: GM1485 100 μM, then FGF2 72 hours and rhEGF 7 days
Protocol: On day one of this experiment, the human fibroblasts, were plated, grown overnight as described above and then changed to DMEM supplemented with 10% heat inactivated FCS, 1% DMEM non-essential amino acids (Gibco), penicillin/streptomycin/glutamine (Gemini Bioproducts) and amphotericin B with or without GM1485 for 1 day, and reduced the concentration of serum over an 16 h period until the serum was absent, however the concentration of GM1485 was maintained at 100 μM throughout. The cells were maintained in SFM+/−GM1485 and 10 ng/mL FGF2 for 72 hours. On day 4 of the experiment, the culture environment was changed to 0.5 mL of a SFM without FGF2, but with rhEGF at 20 ng/ml. The cells were maintained in SFM supplemented with 20 ng/ml rhEGF for an additional 7 days. On the 11th day all the cells were fixed by aspirating the medium from the wells and replacing it with 0.5 mL/well of 4% paraformaldehyde in phosphate buffered saline (“PBS”) for 15 minutes at room temperature. Thereafter, the cells were briefly rinsed with PBS at room temperature, then washed with PBS at room temperature in three cycles of 5 minutes each. […] FIG. 2 is comprised of a set of 4 fluorescence photomicrographs, shown in inverted mode to allow full visualization in grayscale. […]

[3] = tested on: murine fibroblasts, 3T3 cells; test: Oct4 immunostaining of murine fibroblasts (3T3 cells) cultured with GM1485; format: cell-based; details: GM1485 versus vehicle, no neural induction
Protocol: In another experiment, the murine fibroblasts, 3T3 cells were cultured in accordance with the protocol described, supra., for Example 1, except that they were not entered into a neural induction environment. Rather, the murine fibroblasts were fixed and stained with rabbit αOct4 antibody. The photomicrographs in FIG. 3 were taken using bright field microscopy using a 20× objective, except the inset, which is a 20× phase contrast photomicrograph of the same microscopic field into which it is set. The arrows point to the corresponding nuclei in the bright field and phase micrographs of the vehicle treated murine fibroblasts. Only the GM1485 treated murine fibroblasts express Oct4.

[4] = tested on: IGF2 expression; test: cDNA array analysis of gene expression after initiating reprogramming with GM1485; format: cell-based, human; details: 48 hours after initiating reprogramming, GM1485 versus vehicle treated cells
Protocol: It has previously been shown that RIL treatment alters gene expression and that the biologic effects of these compounds are dependent upon cell-cell signaling. Included among these changes are alterations in the secretion of soluble factors (Lowry W E et al. 2008, Proc Natl Acad Sci USA 105, 2883-2888). To begin to explore what changes in gene expression might play a role GM1485-mediated iPS induction, RNA for cDNA array analysis was harvested from GM1485 and vehicle treated cells 48 hours after initiating reprogramming with GM1485.

[5] = tested on: Adult, facial skin-derived human fibroblasts; test: IGF2 blockade during GM1485-mediated iPS induction and neural re-differentiation of human fibroblasts; format: cell-based
Protocol: To test the role of IGF2 in GM1485-mediated iPS induction, an α-IGF2 blocking antibody was included at the onset of induction and maintained in culture for three days.
Adult, facial skin-derived human fibroblasts were cultured in the presence of 100 μM GM1485 in chemically defined medium for 72 hours with (b) or without (a) 40 ng/ml mAb IGF2, a neutralizing antibody (Abcam, Inc.). One set of cells was fixed and stained with rabbit αOct4 (a and b). IGF2 signaling is required of the reprogramming from somatic cells to iPS cells. On the chance that the cells maintained plasticity, cells were continued in culture, but they were switched to culture conditions under which ES cells differentiate along a neural pathway. In specific, the cells were rinsed in PBS and cultured with chemically defined medium supplemented with rhFGF2, 10 ng/ml for an additional 72 hours, after which the cells were rinsed in PBS and the culture medium was replaced with chemically defined medium supplemented with rhEGF, 20 ng/ml. After seven days the cells were rinsed in PBS, fixed in 4% paraformaldehyde in PBS, and processed for immunocytochemistry with TuJ1, a mAb that recognizes neuron-specific βIII-Tubulin.

[6] = tested on: human keratinocytes; test: In vitro treatment of human keratinocytes with GM1485 with or without rhIGF2 (Oct4, Sox2); format: cell-based
[7] = tested on: adult rats; test: Cardiac ischemic injury (left anterior descending artery ligation) in adult rats; format: in vivo, rat; details: 5 mg/kg daily intraperitoneal, 30 days after infarction
Protocol: Adult rats underwent thoracotomy, the heart was isolated, the left anterior descending artery was identified and ligated at its branch point from the left circumflex artery, causing a massive infarction of the left ventricle. The chest was closed, lungs reinflated and the skin closed. The animals began a 30 day regimen of daily intraperitoneal injections of either GM1485 at 5 mg/kg or the saline vehicle in which it was dissolved. On the 30th day after infarction the animals were sacrificed, the hearts harvested, fixed and cryosectioned. […] The histology of the vehicle treated tissue is consistent with an extensive myocardial infarction. […] FIG. 5 is a 2×2 matrix of photomicrographs of cardiac tissue 30 days after infarction and treatment with either vehicle in the top two slides or GM1485 in the bottom two slides. The left upper and lower sections were stained with an αOct4 antiserum and the right upper and lower sections were stained with αSox2 (mAb R&D Systems). Only the GM1485 treated cardiac tissue expresses Oct4 and/or Sox2.

CCC(C)(C)C(=O)C(=O)N1CCC[C@H]1C(=O)O [GM1485, (2S)-1-(3,3-dimethyl-1,2-dioxopentyl)-2-pyrrolidinecarboxylic acid]
Oct4 expression (anti-OCT 3/4 immunostaining) [1]: upregulation of Oct4
reprogramming of fibroblasts to neurons or astrocytes (GFAP, TuJ1) [2]: acquire the ability to be reprogrammed to an alternative cell fate
Oct4 expression (rabbit αOct4 staining) [3]: express Oct4
IGF2 expression increase [4]: 550%
number of genes upregulated by 2 fold or more [4]: Over 100
differentiation to neuronal cells (TuJ1, βIII-Tubulin) ([5]; 100 μM GM1485 72 hours without IGF2 blockade, then rhFGF2 72 hours, rhEGF seven days): differentiated to neuronal cells
reprogramming to iPS cells (rabbit αOct4 staining) ([5]; 100 μM GM1485, 72 hours, without IGF2 blockade): reprogrammed
iPS induction ([6]; GM1485 alone, in vitro): has not previously resulted in iPS induction
Oct4 and Sox2 expression ([6]; GM1485 with rhIGF2 included in cultures): upregulate Oct4 and Sox2 with the same kinetics as treated fibroblasts
histology of heart tissue (H&E stained section) ([7]; versus saline vehicle): consistent with normal myocardium
Oct4 and Sox2 expression in cardiac tissue ([7]; versus vehicle): Oct4 and Sox2 are upregulated
